From ChEMBL document CHEMBL6134928, “Novel Bicyclic DGK Inhibitors for Treating Metastatic Melanoma” (ACS Med Chem Lett, 2025)
pIC50: −log10 of the molar value.

The compounds below were run against Diacylglycerol kinase alpha (Homo sapiens, UniProt P23743) (assay: Inhibition of recombinant human DGKalpha using DLG as substrate preincubated with compound followed by substrate addition and measured after 90 mins in presence of ATP by ADP-Glo reagent based analysis).
Chain of Diacylglycerol kinase alpha (P23743 whole entry): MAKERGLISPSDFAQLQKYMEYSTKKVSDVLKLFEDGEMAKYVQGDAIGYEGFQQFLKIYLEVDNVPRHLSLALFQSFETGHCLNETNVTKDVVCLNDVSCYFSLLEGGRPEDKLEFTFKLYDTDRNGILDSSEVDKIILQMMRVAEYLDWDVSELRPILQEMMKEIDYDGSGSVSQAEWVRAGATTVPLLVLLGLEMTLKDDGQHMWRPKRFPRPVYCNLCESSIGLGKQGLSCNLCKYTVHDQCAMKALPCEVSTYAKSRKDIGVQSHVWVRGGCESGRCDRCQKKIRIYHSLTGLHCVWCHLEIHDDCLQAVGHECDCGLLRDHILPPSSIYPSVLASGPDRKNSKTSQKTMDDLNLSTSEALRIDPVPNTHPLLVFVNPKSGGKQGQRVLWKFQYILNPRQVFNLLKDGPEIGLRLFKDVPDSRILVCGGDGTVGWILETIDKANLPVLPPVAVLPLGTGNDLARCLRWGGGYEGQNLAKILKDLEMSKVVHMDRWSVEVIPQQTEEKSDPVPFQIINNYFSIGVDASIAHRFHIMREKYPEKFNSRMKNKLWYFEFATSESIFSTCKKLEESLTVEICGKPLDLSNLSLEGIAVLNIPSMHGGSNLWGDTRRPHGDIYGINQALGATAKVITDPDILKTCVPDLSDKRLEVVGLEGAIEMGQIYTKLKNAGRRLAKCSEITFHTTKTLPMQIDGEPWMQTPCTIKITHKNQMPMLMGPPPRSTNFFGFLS

pIC50, ≥ 8.00:
C[C@@H]1CN(c2nc(=O)n(C)c3c2nnn3C[C@H]2CCCO2)[C@@H](C)CN1C(c1ccc(F)cc1)c1ccc(F)cc1
C[C@@H]1CN(c2nc(=O)n(C)c3c2ncn3CC2(O)CCC2)[C@@H](C)CN1C(c1ccc(Cl)cc1)C1CC(F)(F)C1 (stereo partly specified)
C[C@@H]1CN(c2nc(=O)n(C)c3c2cnn3C)[C@@H](C)CN1C(c1ccc(F)cc1)c1ccc(F)cc1
C[C@@H]1CN(c2nc(=O)n(C)c3c2nnn3C[C@H]2CCCO2)[C@@H](C)CN1C(c1ccc(C(F)(F)F)cn1)c1ccc(C(F)(F)F)cn1
CC[C@@H]1CN(c2nc(=O)n(C)c3c2nc(C)n3C[C@@H]2CCCO2)[C@@H](C)CN1C(c1ccc(C(F)(F)F)cc1)C1CC(F)(F)C1 (stereo partly specified)
Cc1nc2c(N3C[C@@H](C)N(C(c4ccc(F)cc4)c4ccc(F)cc4)C[C@@H]3C)nc(=O)[nH]c2n1C[C@@H]1CCCO1
